Bounds are passed on as bounds.

We go through 1 molecule from BindingDB's records for patent US20250353833 (Universiteit Antwerpen, 2025).

What all share (test): Biochemical Evaluation
For one test, the target named is T1, Prolyl endopeptidase (Homo sapiens, UniProt P48147).
T1 sequence (P48147 whole entry): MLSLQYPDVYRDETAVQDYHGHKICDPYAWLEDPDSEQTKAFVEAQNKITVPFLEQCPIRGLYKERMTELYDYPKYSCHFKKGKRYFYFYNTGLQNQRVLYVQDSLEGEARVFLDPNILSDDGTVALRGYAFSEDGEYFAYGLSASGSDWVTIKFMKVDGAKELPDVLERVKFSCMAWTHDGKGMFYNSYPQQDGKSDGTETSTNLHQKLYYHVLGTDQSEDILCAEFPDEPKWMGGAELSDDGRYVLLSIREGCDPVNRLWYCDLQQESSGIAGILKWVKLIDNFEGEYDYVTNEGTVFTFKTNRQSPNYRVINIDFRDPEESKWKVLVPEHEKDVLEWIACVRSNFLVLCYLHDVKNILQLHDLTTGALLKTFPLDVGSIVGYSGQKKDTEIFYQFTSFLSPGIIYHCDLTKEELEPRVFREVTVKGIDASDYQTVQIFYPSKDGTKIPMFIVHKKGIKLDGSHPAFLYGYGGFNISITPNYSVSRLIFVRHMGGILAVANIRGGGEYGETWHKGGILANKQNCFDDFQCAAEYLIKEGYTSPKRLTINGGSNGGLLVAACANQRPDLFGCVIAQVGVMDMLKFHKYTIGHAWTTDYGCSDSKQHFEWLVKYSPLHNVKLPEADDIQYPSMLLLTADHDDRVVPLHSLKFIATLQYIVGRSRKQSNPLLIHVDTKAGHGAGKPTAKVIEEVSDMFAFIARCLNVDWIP
From the text:
(§1) Table 1 and 2: The compounds were biochemically evaluated against a panel consisting of all enzymatically active DASH enzymes (DPP4, DPP8, DPP9, DPP2, FAP) and PREP.

A further test has as its target T2, Prolyl endopeptidase FAP (Homo sapiens, UniProt Q12884).
T2 sequence (Q12884 whole entry): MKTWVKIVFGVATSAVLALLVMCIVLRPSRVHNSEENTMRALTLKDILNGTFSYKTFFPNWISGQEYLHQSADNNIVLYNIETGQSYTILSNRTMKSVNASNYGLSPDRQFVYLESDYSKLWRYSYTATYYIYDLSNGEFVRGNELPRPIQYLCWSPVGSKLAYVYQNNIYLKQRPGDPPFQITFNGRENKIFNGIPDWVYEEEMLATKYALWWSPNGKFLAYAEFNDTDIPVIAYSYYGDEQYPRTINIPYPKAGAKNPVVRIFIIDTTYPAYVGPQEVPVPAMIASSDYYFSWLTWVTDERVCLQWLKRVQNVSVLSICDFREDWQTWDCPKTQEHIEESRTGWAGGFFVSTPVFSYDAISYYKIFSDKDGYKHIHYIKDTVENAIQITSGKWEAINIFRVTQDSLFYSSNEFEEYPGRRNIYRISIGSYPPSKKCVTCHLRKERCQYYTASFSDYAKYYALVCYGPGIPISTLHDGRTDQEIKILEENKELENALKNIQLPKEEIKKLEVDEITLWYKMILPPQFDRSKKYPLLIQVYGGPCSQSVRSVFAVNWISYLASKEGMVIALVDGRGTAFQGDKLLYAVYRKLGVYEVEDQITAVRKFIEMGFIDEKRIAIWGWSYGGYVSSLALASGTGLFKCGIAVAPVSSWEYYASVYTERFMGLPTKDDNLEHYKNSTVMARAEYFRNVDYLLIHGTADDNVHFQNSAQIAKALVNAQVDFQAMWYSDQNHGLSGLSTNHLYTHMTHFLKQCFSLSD
Excerpt: as §1

For a further test, the target named is Dipeptidyl peptidase 2 (Homo sapiens, UniProt Q9UHL4).
Excerpt: as §1

Regarding `CC(C)(C)OC(=O)NC12CC3CC(CC(N)(C3)C1)C2` [US20250353833, Compound 4], the 50% inhibitory concentration (IC50) was greater than 10 µM against Prolyl endopeptidase, greater than 10 µM at Prolyl endopeptidase FAP and greater than 5 µM on Dipeptidyl peptidase 2.
